Measurements published in PubChem BioAssay (NCI).
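48-hour exposure; five concentrations; linearly interpolated endpoints. TGI denotes the concentration required for complete inhibition of growth.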 Where a SMILES comes first, the peptide text is derived from it. The star is where a group is joined. X36 = O=C(c1ccc(-c2ccc(Cl)cc2Cl)o1)*

Assays:
Experiment in all cases: NCI anticancer screen, dose series, 48 h
786-0 renal = system: 786-0 renal
A549 NSCLC = system: A549 NSCLC
CAKI-1 renal = system: CAKI-1 renal
COLO 205 colon = system: COLO 205 colon
DU-145 prostate = system: DU-145 prostate
EKVX NSCLC = system: EKVX NSCLC
NCI-H226 lung = system: NCI-H226 lung
NCI-H522 lung = system: NCI-H522 lung
OVCAR-5 ovarian = system: OVCAR-5 ovarian
RPMI-8226 leukemia = system: RPMI-8226 leukemia
SW-620 colon = system: SW-620 colon

| SMILES | TGI (786-0 renal) [µM] | TGI (A549 NSCLC) [µM] | TGI (CAKI-1 renal) [µM] | TGI (COLO 205 colon) [µM] | TGI (DU-145 prostate) [µM] | TGI (EKVX NSCLC) [µM] | TGI (NCI-H226 lung) [µM] | TGI (NCI-H522 lung) [µM] | TGI (OVCAR-5 ovarian) [µM] | TGI (RPMI-8226 leukemia) [µM] | TGI (SW-620 colon) [µM] |
| --- | --- | --- | --- | --- | --- | --- | --- | --- | --- | --- | --- |
| CN(C)c1ccc(C2SCC(=O)N2NS(=O)(=O)c2cccc(C(=O)O)c2)cc1 (stereo not drawn) | 31 | > 100 | > 100 | > 100 | > 100 | > 100 | > 100 | > 100 | > 100 | > 100 | > 100 |
| CCOC(=O)c1ccc(N2C(=S)N(C(=O)c3ccccc3)C(=Nc3ccccc3)C2=Nc2ccccc2)cc1 | > 100 | > 100 | > 100 |  | > 100 | > 100 | 52.7 | > 100 | > 100 | > 100 | > 100 |
| CCC1(C(=O)OC(C)(C)C)OC12C(C)CCCC2C (stereo not drawn) | > 100 | > 100 | > 100 | 63 | > 100 | > 100 | > 100 | > 100 | > 100 | 49.9 | > 100 |
| COc1ccc(Nc2nc(NS(=O)(=O)c3cc(C)c(Cl)cc3S)n[nH]2)cc1 | > 100 | > 100 | > 100 | > 100 | > 100 | > 100 | > 100 | > 100 | > 100 | > 100 | > 100 |
| CN(C)Cc1cc(C(=O)/C=C/c2ccccc2Cl)cc(CN(C)C)c1O | 21.4 | 38.7 | 14.4 | 18.5 | 24.8 | 30.6 | 48.2 | 18 | 40.2 | 56.5 | 17 |
| CC1=NN(c2ccc(S(=O)(=O)O)cc2)C2(C1)SCC(=O)N2c1nc2ccccc2s1 (stereo not drawn) | > 100 | > 100 | > 100 | > 100 | > 100 | > 100 | > 100 | > 100 | > 100 | > 100 | > 100 |
| Cc1ccc([C@H]2CC(=O)C[C@H](c3ccc(C)cc3)C23C(=O)c2ccccc2C3=O)cc1 | 31.7 | > 100 | > 100 | > 100 | > 100 | > 100 | > 100 | 26.5 | > 100 | > 100 | > 100 |
| O=C(O)c1ccc(S(=O)(=O)c2ccccc2[N+](=O)[O-])cc1 | > 10 | > 10 | > 10 | > 10 | > 10 | > 10 | > 10 | > 10 | > 10 | > 10 | > 10 |
| NC(=O)NNC(=O)c1nc[nH]c1[N+](=O)[O-] | > 100 | > 100 | > 100 | > 100 | > 100 | > 100 | > 100 | > 100 | > 100 | > 100 | > 100 |
| O=C1c2ccccc2-c2nc(-c3cccc([N+](=O)[O-])c3)nnc21 | > 100 | 98.6 | 12.6 | 12.6 | 17 | 61.1 | 35.9 | > 100 | 50 | > 100 | 62.8 |
| C1CNCCNCCN1 | > 100 | > 100 | > 100 | > 100 | > 100 | > 100 | > 100 | > 100 | > 100 | > 100 | > 100 |
| CN(O)C(=O)c1cccc(Cl)c1 | > 100 | > 100 | > 100 | > 100 | > 100 | > 100 | > 100 | > 100 | > 100 | > 100 | > 100 |
| O=c1oc2ccccc2c(Nc2ccc3c(c2)Oc2ccccc2O3)c1[N+](=O)[O-] | 38.8 | > 100 | > 100 | > 100 | 90.1 | 67.6 | 48.1 | 65.5 | > 100 | > 100 | 74.9 |
| Cc1cc(C2(O)C=C(C(C)(C)C)C(=O)C(C(C)(C)C)=C2)c(C)cc1C1(O)C=C(C(C)(C)C)C(=O)C(C(C)(C)C)=C1 | > 100 | > 100 | > 100 | > 100 | > 100 | > 100 | > 100 | > 100 | > 100 | > 100 | > 100 |
| O=c1[nH]nc(Cc2ccc([N+](=O)[O-])cc2)n1CCO | > 100 | > 100 | > 100 | > 100 | > 100 | > 100 | > 100 | > 100 | > 100 | > 100 | > 100 |
| CC(=O)O[C@H]1C#C/C=C\C#CC[C@@H]2C(=O)N[C@@H]12 | > 88.3 | > 100 | > 40.1 | > 100 | 62 | > 100 | 90.8 | > 100 | > 100 | > 78.1 | > 100 |
| N#C/C(=C\n1ccc(=O)[nH]c1=S)C(N)=O | > 100 | > 100 | > 100 | > 100 | > 100 | > 100 | > 100 | > 100 | > 100 | > 100 | > 100 |
| OCC1OC(n2cnc3c(Cl)nc(Nc4ccccc4)nc32)CC1O (stereo not drawn) | > 100 | 36.4 | 3.4 | > 100 | > 100 | 8.15 | > 100 | 10.6 | > 100 | > 100 | > 100 |
| CCC(C#N)NC(=O)NC(C#N)CC (stereo not drawn) | > 100 | > 100 | > 100 | > 100 | > 100 | > 100 | > 100 | > 100 | > 100 | > 100 | > 100 |
| C=C1C(=O)CC2C(=O)C(C)(O)CC/C=C(\C)C(=O)CC12 (stereo not drawn) | 35.6 | > 100 | 7.98 | 27.4 | 42.2 | 53.9 | > 77.3 | 17.1 | 47.2 | 82.9 | > 34.2 |
| CCOC(=O)/C=C(/C(=O)OCC)n1ccc(N)nc1=O | > 100 | > 100 | > 100 | > 100 | > 100 | > 100 | > 100 | 54.8 | > 100 | > 100 | > 100 |
| Nn1c(CCCCCCCCc2nnc(COc3ccc(Cl)cc3)n2N)nnc1COc1ccc(Cl)cc1 | > 100 | > 100 | 35.6 | > 100 | > 100 | > 100 | > 100 | > 100 | > 100 | > 100 | > 100 |
| CCn1nc2c3c(ncn3C(C)(C)O2)c1=O | > 100 | > 100 | > 100 | > 100 | > 100 | > 100 | > 100 | > 100 | > 100 | > 100 | > 100 |
| Cc1ccc(-c2cc(N)n(-c3nc4c(c(=O)n(C)c(=O)n4C)n3C)n2)cc1 | > 100 | > 100 | > 100 | > 100 | > 100 | > 100 | > 100 | > 100 | > 100 | > 100 |  |
| O=C1NC(N/N=C/C(O)C(O)C(O)CO)=N/C1=C\c1ccco1 (stereo not drawn) | > 100 | > 100 | > 100 | > 100 | > 100 | > 100 | > 100 | > 100 | > 100 | > 100 | > 100 |
| COc1cc(C2SCC(=O)N2c2ccc(-c3ccc(-n4c(-c5ccccc5)nc5ccccc5c4=O)cc3)cc2)cc(OC)c1OC (stereo not drawn) | 47.6 | > 100 | 45.8 | > 100 | > 100 | > 100 | > 100 | 62.3 | > 100 | > 100 | > 100 |
| O=c1c2ncn(COCCCl)c2n(-c2ccccc2)c(=S)n1-c1ccccc1 | > 100 | > 100 | > 100 | > 100 | > 100 | > 100 | > 100 | > 100 | > 100 | > 100 | > 100 |
| Cc1ccc2c(=O)cc(-c3cccs3)[nH]c2n1 | > 100 | > 100 | > 100 | 25.2 | > 100 | > 100 | 63.7 | > 47.4 | > 100 | > 49.4 | > 30.1 |
| C1CCC2C(C1)CCCC2NC1=NCCO1 (stereo not drawn) | > 100 | > 100 | > 100 | > 100 | > 100 | > 100 | > 100 | > 100 | > 100 | > 100 | > 100 |
| CCC(C)C(NC(=O)CNC(=O)C(Cc1ccccc1)NC(=O)C1CCCN1C(=O)c1ccc(-c2ccc(Cl)cc2Cl)o1)C(=O)OC (stereo not drawn) (X36-PFGI-OMe; configuration not given here) | > 100 | > 100 | > 100 | > 100 | > 100 | 89.9 | > 100 | > 100 | > 100 | > 100 | > 100 |
